# Measurements from patent US8148391B2 (Cephalon, Inc., priority 2006, dated 2012).
# Like-named read-outs stand apart in the source and are kept apart here.
# What was measured:
# [1] = molecular target: T1, baculovirus-expressed ALK (Homo sapiens, UniProt Q9UM73); test: ALK Kinase Assay (ELISA-type, time-resolved fluorescence); assay type: biochemical
# T1 construct: host or cells: baculovirus expression system
# Method in brief: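 Wells were coated with phospholipase C-γ at 10 μg/mL in Tris-buffered saline. Adding 30 ng/ml enzyme started the reaction, which ran at 37° C for 15 minutes before Eu-N1 PT66 antibody detection. Percent inhibition versus log10 concentration gave IC50 by variable-slope fit.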
# [2] = molecular target: T2, c-Met (cytoplasmic domain) (Homo sapiens, UniProt P08581); test: c-Met Kinase Assay (same methods as for ALK, with modifications); assay type: biochemical
# T2 construct: 10 ng/mL c-Met (cytoplasmic domain, Invitrogen Corporation #PV3143); purchased Invitrogen Corporation PV3143
# T2 sequence (P08581 956-1390 limits assumed): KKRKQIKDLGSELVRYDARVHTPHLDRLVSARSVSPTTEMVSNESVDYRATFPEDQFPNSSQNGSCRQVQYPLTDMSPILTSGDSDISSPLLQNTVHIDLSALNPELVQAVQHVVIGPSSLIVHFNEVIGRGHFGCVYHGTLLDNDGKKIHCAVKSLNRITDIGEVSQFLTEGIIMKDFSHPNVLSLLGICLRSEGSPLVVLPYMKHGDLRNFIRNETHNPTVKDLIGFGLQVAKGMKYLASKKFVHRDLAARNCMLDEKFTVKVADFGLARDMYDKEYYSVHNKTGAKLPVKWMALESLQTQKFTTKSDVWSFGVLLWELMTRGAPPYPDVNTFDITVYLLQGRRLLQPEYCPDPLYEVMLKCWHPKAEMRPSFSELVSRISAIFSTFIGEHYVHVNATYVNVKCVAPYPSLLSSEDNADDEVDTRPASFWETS
# Method in brief: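 IC50 values were fitted by variable-slope sigmoidal regression of percent inhibition against log compound concentration. Phosphorylation was read with Eu-N1 PT66 antibody after a 15 min, 37 °C reaction. The reaction was initiated with 10 ng/mL c-Met cytoplasmic domain on wells coated with 10 μg/mL PLC-γ in TBS.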
# [3] = ALK kinase inhibition, 1 μM ATP, read-out: ALK Activity
# [4] = c-Met kinase inhibition, 1 μM ATP, read-out: cMet Activity
# [5] = 1 μM ATP (Km level), read-out: ALK Activity (ALK Kinase Inhibition, IC50)
# [6] = 1 μM ATP (Km level), read-out: cMet Activity (c-Met Kinase Inhibition, IC50)
# [7] = ALK kinase inhibition, 1 μM ATP (Km level), read-out: ALK Activity
# [8] = c-Met kinase inhibition, 1 μM ATP (Km level), read-out: cMet Activity
# [9] = 1 μM ATP (Km level), 30 ng/ml ALK, 37° C., 15 minutes, read-out: ALK Activity (ALK kinase inhibition, IC50 class)
# [10] = 1 μM ATP (Km level), 10 ng/mL c-Met, read-out: cMet Activity (c-Met kinase inhibition, IC50 class)
# T1 sequence (Q9UM73 19-1620): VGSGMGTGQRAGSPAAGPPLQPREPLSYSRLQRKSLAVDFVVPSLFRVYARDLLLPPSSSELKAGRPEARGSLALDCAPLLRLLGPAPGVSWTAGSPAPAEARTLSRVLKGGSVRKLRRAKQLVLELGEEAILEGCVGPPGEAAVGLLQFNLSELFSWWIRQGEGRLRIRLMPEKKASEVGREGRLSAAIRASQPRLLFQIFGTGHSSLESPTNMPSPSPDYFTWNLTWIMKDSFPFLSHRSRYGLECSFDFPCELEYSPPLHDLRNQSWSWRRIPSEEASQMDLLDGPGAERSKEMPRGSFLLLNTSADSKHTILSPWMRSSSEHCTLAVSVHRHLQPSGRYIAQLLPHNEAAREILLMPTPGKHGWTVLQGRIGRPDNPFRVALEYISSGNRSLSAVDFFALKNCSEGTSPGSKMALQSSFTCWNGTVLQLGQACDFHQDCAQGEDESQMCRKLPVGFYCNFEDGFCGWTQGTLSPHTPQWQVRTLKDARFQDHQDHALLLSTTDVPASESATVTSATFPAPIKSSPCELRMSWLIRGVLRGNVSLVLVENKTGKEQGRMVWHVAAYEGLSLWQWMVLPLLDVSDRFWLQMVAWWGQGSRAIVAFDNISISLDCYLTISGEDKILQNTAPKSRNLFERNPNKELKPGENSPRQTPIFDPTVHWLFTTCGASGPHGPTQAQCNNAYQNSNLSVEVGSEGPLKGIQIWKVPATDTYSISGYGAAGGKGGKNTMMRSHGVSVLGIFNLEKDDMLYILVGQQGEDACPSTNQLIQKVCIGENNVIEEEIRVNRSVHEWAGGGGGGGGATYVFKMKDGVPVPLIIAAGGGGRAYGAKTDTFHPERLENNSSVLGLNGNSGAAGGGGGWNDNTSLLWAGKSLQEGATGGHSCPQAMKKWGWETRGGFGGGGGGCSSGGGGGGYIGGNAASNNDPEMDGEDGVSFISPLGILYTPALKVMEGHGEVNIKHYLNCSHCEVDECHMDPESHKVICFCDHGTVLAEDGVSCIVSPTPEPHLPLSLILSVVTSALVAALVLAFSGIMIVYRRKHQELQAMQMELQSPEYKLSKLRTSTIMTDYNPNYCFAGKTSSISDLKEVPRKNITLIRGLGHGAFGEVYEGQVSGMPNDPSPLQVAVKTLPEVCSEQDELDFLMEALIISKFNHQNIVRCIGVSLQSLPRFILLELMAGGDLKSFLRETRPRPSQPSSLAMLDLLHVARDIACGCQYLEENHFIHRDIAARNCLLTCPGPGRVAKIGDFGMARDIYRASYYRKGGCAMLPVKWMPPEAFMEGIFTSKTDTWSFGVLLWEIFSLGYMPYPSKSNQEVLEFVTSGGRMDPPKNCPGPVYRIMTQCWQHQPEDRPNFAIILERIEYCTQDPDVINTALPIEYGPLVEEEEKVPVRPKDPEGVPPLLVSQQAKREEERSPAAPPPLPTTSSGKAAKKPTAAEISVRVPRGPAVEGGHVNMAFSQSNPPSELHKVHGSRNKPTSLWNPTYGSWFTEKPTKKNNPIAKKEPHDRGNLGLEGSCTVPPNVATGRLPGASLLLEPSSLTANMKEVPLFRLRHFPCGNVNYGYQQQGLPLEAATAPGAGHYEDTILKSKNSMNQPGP
"IC50 [1, 5] [nM]","IC50 [2, 6] [nM]","IC50 [1, 9] [nM]","IC50 [2, 10] [nM]",SMILES,further results
,,100 to 1000,< 100,"C#CCNC(=O)c1cccc(F)c1Nc1nc(Nc2ccc3c(c2)OCCCN3CC)ncc1Cl [Example 1407, 2-[5-Chloro-2-(9-ethyl-6,7,8,9-tetrahydro-5-oxa-9-aza-benzocyclohepten-3-ylamino)-pyrimidin-4-ylamino]-3-fluoro-N-prop-2-ynyl-benzamide]",
< 100,> 10000,,,"COc1cc2c(cc1Nc1ncc(Cl)c(Nc3ccccc3S(=O)(=O)N(C)C)n1)CCN(CC(C)(F)F)CC2 [Example 824, 2-{5-Chloro-2-[3-(2,2-difluoro-propyl)-8-methoxy-2,3,4,5-tetrahydro-1H-benzo[d]azepin-7-ylamino]-pyrimidin-4-ylamino}-N,N-dimethyl-benzenesulfonamide]",
1000 to 10000,> 10000,,,"COc1cc2c(cc1Nc1ncc(Cl)c(Nc3c(OC)ccc4c3CN(S(C)(=O)=O)CC(=O)N4)n1)CCN(CC(=O)N(C)C)CC2 [Example 751, 2-{7-[5-Chloro-4-(4-methanesulfonyl-7-methoxy-2-oxo-2,3,4,5-tetrahydro-1H-benzo[e][1,4]diazepin-6-ylamino)-pyrimidin-2-ylamino]-8-methoxy-1,2,4,5-tetrahydro-benzo[d]azepin-3-yl}-N,Ndimethyl-acetamide]",
,,< 100,1000 to 10000,"COc1cc(N(C)C)ccc1Nc1nc(Nc2ccc3c(c2)C(C)(C)CCC(=O)N3C)ncc1Cl [Example 1342, 7-[5-Chloro-4-(4-dimethylamino-2-methoxy-phenylamino)-pyrimidin-2-ylamino]-1,5,5-trimethyl-1,3,4,5-tetrahydro-benzo[b]azepin-2-one]",
,,< 100,< 100,"C#CCNC(=O)c1ccccc1Nc1nc(Nc2ccc3c(c2)CCN(CCOC)CC3)ncc1Cl [Example 1387, 2-{5-Chloro-2-[3-(2-methoxy-ethyl)-2,3,4,5-tetrahydro-1H-benzo[d]azepin-7-ylamino]-pyrimidin-4-ylamino}-N-prop-2-ynyl-benzamide]",
< 100,> 10000,,,"CNC(=O)CN1CCc2cc(Nc3ncc(F)c(Nc4ccc(N5CCOCC5)cc4OC)n3)c(OC)cc2CC1 [Example 809, 2-{7-[5-Fluoro-4-(2-methoxy-4-morpholin-4-yl-phenylamino)-pyrimidin-2-ylamino]-8-methoxy-1,2,4,5-tetrahydro-benzo[d]azepin-3-yl}-N-methyl-acetamide]",
,,< 100,1000 to 10000,"COc1cc2c(cc1Nc1ncc(Cl)c(Nc3ccccc3S(=O)(=O)N(C)C)n1)CCN(CC(=O)N1CCCC1)CC2 [Example 1157, 2-{5-Chloro-2-[8-methoxy-3-(2-oxo-2-pyrrolidin-1-yl-ethyl)-2,3,4,5-tetrahydro-1H-benzo[d]azepin-7-ylamino]-pyrimidin-4-ylamino}-N,N-dimethyl-benzenesulfonamide]",

# Further lines, the compound ahead of its results:
SMILES,"IC50 [1, 5] [nM]","IC50 [2, 6] [nM]","IC50 [1, 9] [nM]","IC50 [2, 10] [nM]",further results
"CCN1CC(O)(CO)COc2cc(Nc3ncc(Cl)c(Nc4c(F)cccc4C(=O)NC)n3)ccc21 (stereo not shown) [Example 1736, 2-[5-Chloro-2-(9-ethyl-7-hydroxy-7-hydroxymethyl-6,7,8,9-tetrahydro-5-oxa-9-aza-benzocyclohepten-3-ylamino)-pyrimidin-4-ylamino]-3-fluoro-N-methyl-benzamide]",,,,,"IC50 [1, 3]: 100 to 1000 nM; IC50 [2, 4]: < 100 nM"
"CN1CCN(C2CCc3ccc(Nc4ncc(Cl)c(N[C@@H]5CCCC[C@H]5NS(C)(=O)=O)n4)cc3CC2)CC1 (stereo partly drawn) [Example 888, N-((1R,2R)-2-{5-Chloro-2-[7-(4-methyl-piperazin-1-yl)-6,7,8,9-tetrahydro-5H-benzocyclohepten-2-ylamino]-pyrimidin-4-ylamino}-cyclohexyl)-methanesulfonamide]",< 100,1000 to 10000,,,
CCNC(=O)c1ccccc1Nc1nc(Nc2ccc3c(c2)C(C)(C)CCC(=O)N3)ncc1Cl [Example 339],,,,,"IC50 [1, 7]: < 100 nM; IC50 [2, 8]: < 100 nM"
"CCN([C@@H]1CCCC[C@H]1Nc1nc(Nc2cc3c(cc2OC)CCN(CCOC)CC3)ncc1Cl)S(C)(=O)=O [Example 1677, N-((1R,2R)-2-{5-Chloro-2-[8-methoxy-3-(2-methoxy-ethyl)-2,3,4,5-tetrahydro-1H-benzo[d]azepin-7-ylamino]-pyrimidin-4-ylamino}-cyclohexyl)-N-ethyl-methanesulfonamide]",,,,,"IC50 [1, 3]: < 100 nM; IC50 [2, 4]: > 10000 nM"
"COc1cc2c(cc1Nc1ncc(Cl)c(Nc3ccccc3S(=O)(=O)C(C)C)n1)CCC(N1CCOCC1)CC2 (stereo not shown) [Example 1050, 5-Chloro-N*2*-(3-methoxy-7-morpholin-4-yl-6,7,8,9-tetrahydro-5H-benzocyclohepten-2-yl)-N*4*-[2-(propane-2-sulfonyl)-phenyl]-pyrimidine-2,4-diamine]",,,< 100,> 10000,
"CCN1C(=O)CCCc2c1ccc(Nc1ncc(Cl)c(N[C@H]3[C@@H](C(=O)NC)[C@@H]4C=C[C@H]3C4)n1)c2OC (relative stereo) [Example 601, (2-exo-3-exo)-3-[5-Chloro-2-(1-ethyl-6-methoxy-2-oxo-2,3,4,5-tetrahydro-1H-benzo[b]azepin-7-ylamino)-pyrimidin-4-ylamino]-bicyclo[2.2.1]hept-5-ene-2-carboxylic acid methylamide]",< 100,> 10000,,,
"COCCN1CCc2cc(Nc3ncc(Cl)c(NC4C5C=CC(C5)C4C(N)=O)n3)c(OC)cc2CC1 (stereo not drawn) [Example 112, (2-exo,3-exo)-3-{5-Chloro-2-[8-methoxy-3-(2-methoxy-ethyl)-2,3,4,5-tetrahydro-1H-benzo[d]azepin-7-ylamino]-pyrimidin-4-ylamino}-bicyclo[2.2.1]hept-5-ene-2-carboxylic acid amide]",,,,,"IC50 [1, 7]: < 100 nM; IC50 [2, 8]: > 10000 nM"
"COc1c(Nc2ncc(Cl)c(Nc3ccccc3S(=O)(=O)N(C)C)n2)ccc2c1CCC(NCC(F)F)CC2 (stereo not shown) [Example 683, 2-{5-Chloro-2-[7-(2,2-difluoro-ethylamino)-1-methoxy-6,7,8,9-tetrahydro-5H-benzocyclohepten-2-ylamino]-pyrimidin-4-ylamino}-N,N-dimethyl-benzenesulfonamide]",< 100,> 10000,,,
"COCCNC1CCc2cc(Nc3ncc(Cl)c(Nc4ccccc4S(=O)(=O)N(C)C)n3)c(OC)cc2CC1 (stereo not shown) [Example 1083, 2-{5-Chloro-2-[3-methoxy-7-(2-methoxy-ethylamino)-6,7,8,9-tetrahydro-5H-benzocyclohepten-2-ylamino]-pyrimidin-4-ylamino}-N,N-dimethyl-benzenesulfonamide]",,,< 100,1000 to 10000,
"COCCN1CCc2cc(Nc3ncc(Cl)c(Nc4ccccc4S(=O)(=O)N4CC[C@H](C)C4)n3)c(OC)cc2CC1 [Example 854, 5-Chloro-N(2)-[8-methoxy-3-(2-methoxy-ethyl)-2,3,4,5-tetrahydro-1H-benzo[d]azepin-7-yl]-N(4)-[2-((S)-3-methyl-pyrrolidine-1-sulfonyl)-phenyl]-pyrimidine-2,4-diamine]",< 100,100 to 1000,,,
"C#CCNC(=O)c1sccc1Nc1nc(Nc2ccc3c(c2)NC(=O)CCC3(C)C)ncc1Cl [Example 1623, 3-[5-Chloro-2-(5,5-dimethyl-2-oxo-2,3,4,5-tetrahydro-1H-benzo[b]azepin-8-ylamino)-pyrimidin-4-ylamino]-thiophene-2-carboxylic acid prop-2-ynylamide]",,,,,"IC50 [1, 3]: 100 to 1000 nM; IC50 [2, 4]: > 10000 nM"
"COc1cc2c(cc1Nc1ncc(Cl)c(N[C@H]3[C@@H](C(N)=O)[C@@H]4C=C[C@H]3C4)n1)CCN(CC(C)(C)O)CC2 [Example 1560, (1S,2S,3R,4R)-3-{5-Chloro-2-[3-(2-hydroxy-2-methyl-propyl)-8-methoxy-2,3,4,5-tetrahydro-1H-3-benzazepin-7-ylamino]-pyrimidin-4-ylamino}-bicyclo[2.2.1]hept-5-ene-2-carboxylic acid amide]",,,,,"IC50 [1, 3]: < 100 nM; IC50 [2, 4]: > 10000 nM"
"CNC(=O)c1scc(C)c1Nc1nc(Nc2ccc3c(c2)CN(C)C(=O)CC3)ncc1Cl [Example 1799, 3-[5-Chloro-2-(2-methyl-3-oxo-2,3,4,5-tetrahydro-1H-benzo[c]azepin-8-ylamino)-pyrimidin-4-ylamino]-4-methyl-thiophene-2-carboxylic acid methylamide]",,,,,"IC50 [1, 3]: < 100 nM; IC50 [2, 4]: < 100 nM"
"COCCOC(=O)c1ccccc1Nc1nc(Nc2cc3c(cc2OC)CCN(CCO)CC3)ncc1Cl [Example 1549, 2-{5-Chloro-2-[3-(2-hydroxy-ethyl)-8-methoxy-2,3,4,5-tetrahydro-1H-3-benzazepin-7-ylamino]-pyrimidin-4-ylamino}-benzoic acid 2-methoxy-ethyl ester]",,,,,"IC50 [1, 3]: < 100 nM; IC50 [2, 4]: > 10000 nM"
"CCN1CCN(CC)c2cc(Nc3ncc(Cl)c(Nc4ccccc4S(=O)(=O)C(C)C)n3)ccc2C1 [Example 728, 5-Chloro-N(2)-(1,4-diethyl-2,3,4,5-tetrahydro-1H-benzo[e][1,4]diazepin-8-yl)-N(4)-[2-(propane-2-sulfonyl)-phenyl]-pyrimidine-2,4-diamine]",< 100,100 to 1000,,,
"CN1C(=O)CCCc2cc(Nc3ncc(Cl)c(Nc4ccc5[nH]c(C(F)(F)F)nc5c4)n3)ccc21 [Example 1016, 7-[5-Chloro-4-(2-trifluoromethyl-1H-benzoimidazol-5-ylamino)-pyrimidin-2-ylamino]-1-methyl-1,3,4,5-tetrahydro-benzo[b]azepin-2-one]",,,100 to 1000,1000 to 10000,
